Experimental findings from ChEMBL document CHEMBL3244082, “5-allyl-9-oxobenzomorphans. 3. Potent narcotic antagonists and analgesics-antagonists in the series of substituted 2',9beta-dihydroxy-6,7-benzomorphans” (1977) are described below.

Some results are limits rather than exact numbers.

Holding throughout (assay type): functional
The test system of test [1] is Mus musculus. Nature of the test: Narcotic antagonist activity in sc dosed mouse assessed as inhibition of oxymorphone-induced straub tail response administered 10 mins post oxymorphone-challenge.
Test [2] concerns Mus musculus. Nature of the test: Analgesic activity in po dosed mouse by hot plate test.
The test system of test [3] is Mus musculus. Nature of the test: Analgesic activity in po dosed mouse assessed as increase in response time by hot plate test relative to control.
The test system of test [4] is Mus musculus. Nature of the test: Analgesic activity in sc dosed mouse assessed as reduction in phenylquinone-induced writhing administered 15 mins prior to phenylquinone-challenge measured up to 10 mins.
The subject of test [5] is Mus musculus. Description: Analgesic activity in mouse assessed as reduction in phenylquinone-induced writhing at 40 mg/kg, sc administered 15 mins prior to phenylquinone-challenge measured up to 10 mins relative to control. More on the design: scale not given: the % may be the effect or the level left. As to conditions: route subcutaneous.
Test [6] relates to Mus musculus. Description: Analgesic activity in mouse assessed as reduction in phenylquinone-induced writhing at 20 mg/kg, sc administered 15 mins prior to phenylquinone-challenge measured up to 10 mins relative to control. Also noted: scale not given: the % may be the effect or the level left. To be noted: route subcutaneous.
Test [7] concerns Rattus norvegicus. Nature of the test: Narcotic antagonist activity in sc dosed rat assessed as reversal of morphine-induced analgesia by tail-flick test.
Test [8] has as its system Rattus norvegicus. Description: Analgesic activity in sc dosed rat assessed as reduction in phenylquinone-induced writhing administered 15 mins prior to phenylquinone-challenge measured up to 10 mins.
For test [9], the system named is Rattus norvegicus. Nature of the test: Narcotic antagonist activity in sc dosed rat assessed as reversal of oxymorphone-induced loss of righting reflex.
Test [10] relates to Mus musculus. Nature of the test: Analgesic activity in mouse assessed as reduction in phenylquinone-induced writhing at 10 mg/kg, sc administered 15 mins prior to phenylquinone-challenge measured up to 10 mins relative to control. Also noted: scale not given: the % may be the effect or the level left. To be noted: route subcutaneous.
For test [11], the system named is Mus musculus. Nature of the test: Narcotic antagonist activity in mouse assessed as inhibition of oxymorphone-induced straub tail response at 5 mg/kg, sc administered 10 mins post oxymorphone-challenge relative to control. To be noted: route subcutaneous.
In test [12] the test system is Mus musculus. Description: Narcotic antagonist activity in mouse assessed as inhibition of oxymorphone-induced straub tail response at 2.5 mg/kg, sc administered 10 mins post oxymorphone-challenge relative to control. To be noted: route subcutaneous.
In test [13] the test system is Mus musculus. Description: Analgesic activity in mouse assessed as reduction in phenylquinone-induced writhing at 1.25 mg/kg, sc administered 15 mins prior to phenylquinone-challenge measured up to 10 mins relative to control. Also noted: scale not given: the % may be the effect or the level left. As to conditions: route subcutaneous.
Test [14] relates to Mus musculus. Nature of the test: Analgesic activity in mouse assessed as reduction in phenylquinone-induced writhing at 2.5 mg/kg, sc administered 15 mins prior to phenylquinone-challenge measured up to 10 mins relative to control. As to conditions: route subcutaneous. Also noted: scale not given: the % may be the effect or the level left.
Where [15] appears, read: Mus musculus, sc, 10 min, read-out: ED50.
The mark [16] stands for this setting: Mus musculus, sc, read-out: ED50.

As for `CC1C[C@]23CCN(C)[C@H](Cc4ccccc42)[C@@]3(C)O1.Cl` (some centres not stated), the ED50 in the test on Mus musculus [1] (setting [15]) was more than 40 mg/kg; in the test with Mus musculus [2], 16 mg/kg. For the same compound, in the test with Mus musculus [3], the “%max” value was 16%.
As to `C=CC[C@]12CCN(CC3CCC3)[C@H](Cc3ccc(O)cc31)[C@@]2(C)O.O=C(O)C(O)C(O)C(=O)O` (stereo in doubt; (+)-23b), the ED50 with Mus musculus [1] and in the test on Mus musculus [4] was more than 40 mg/kg each time.
With `CC1C[C@]23CCN(C4CC4)[C@H](Cc4ccc(O)cc42)[C@H]3O1` (some centres not stated), the ED50 in the test on Mus musculus [1] (setting [15]) was 8 mg/kg; with Mus musculus [4] (setting [16]), 30 mg/kg. For the same compound, the Activity in the test with Mus musculus [5] amounted to 67%; with Mus musculus [6], 23%.
As for `C=CC[C@]12CCN(CC3CCC3)[C@H](Cc3ccc(O)cc31)[C@H]2O`, the values for the ED50 in the test on Mus musculus [1] (setting [15]) and in the test on Mus musculus [4] (setting [16]) were 1.8 mg/kg and 0.3 mg/kg, respectively.
For the compound `CCC[C@]12CCN(CC3CC3)[C@H](Cc3ccc(O)cc31)[C@H]2O`, the ED50 in the test on Mus musculus [1] (setting [15]) was 0.62 mg/kg; in the test with Mus musculus [4] (setting [16]), 0.07 mg/kg.
In the case of `C=CC[C@]12CCN(CC3CCC3)[C@H](Cc3ccc(O)cc31)[C@@]2(C)O.O=C(O)C(O)C(O)C(=O)O` (stereo in doubt; (-)-23b), the ED50 with Mus musculus [1] amounted to 0.43 mg/kg; in the test on Rattus norvegicus [7], 0.08 mg/kg; in the test with Mus musculus [4] it was 0.06 mg/kg; with Rattus norvegicus [8] it was 0.01 mg/kg; with Rattus norvegicus [9], 0.05 mg/kg.
For `Oc1ccc2c(c1)[C@@]13CCCC[C@@]1(O)[C@@H](C2)N(CC1CCC1)CC3` [BUTORPHANOL], the ED50 in the test on Mus musculus [1] (setting [15]) came out at 0.98 mg/kg; in the test with Rattus norvegicus [7], 0.43 mg/kg; in the test on Mus musculus [4] (setting [16]), 0.05 mg/kg; in the test with Rattus norvegicus [8] it was 0.04 mg/kg; in the test with Rattus norvegicus [9], 0.27 mg/kg.
As to `CC1C[C@]23CCN(C)[C@H](Cc4ccccc42)[C@H]3O1` (some centres not stated), the ED50 was more than 40 mg/kg with Mus musculus [1] (setting [15]) and 30 mg/kg in the test with Mus musculus [2]. The “%max” value with Mus musculus [3] is 16%.
For `CCC[C@]12CCN(CC3CC3)[C@H](Cc3ccc(O)cc31)[C@@]2(C)O`, the ED50 in the test with Mus musculus [1] (setting [15]) was determined as 0.074 mg/kg; in the test on Rattus norvegicus [7], 0.008 mg/kg; in the test on Mus musculus [4] (setting [16]) it was 44 mg/kg; in the test with Rattus norvegicus [8] it was 30 mg/kg; in the test with Rattus norvegicus [9], 0.013 mg/kg.
Turning to `CC1C[C@]23CCN(C)[C@H](Cc4ccc(O)cc42)[C@@]3(C)O1` (some centres not stated), the ED50 in the test with Mus musculus [1] (setting [15]) is more than 40 mg/kg; in the test on Mus musculus [4] (setting [16]), 18 mg/kg. Also, the figures for the Activity with Mus musculus [6] and in the test on Mus musculus [10] were 65% and 5%, respectively.
Turning to `CC1C[C@]23CCN(C)[C@H](Cc4ccc(O)cc42)[C@H]3O1` (some centres not stated), the values for the ED50 in the test with Mus musculus [1] (setting [15]) and with Mus musculus [4] (setting [16]) were more than 40 mg/kg and 19 mg/kg, respectively. The Activity in the test on Mus musculus [6] is 63%; with Mus musculus [10], 0%.
For `CN(C)CC1C[C@]23CCN(C)[C@H](Cc4ccccc42)[C@@]3(C)O1.Cl` (some centres not stated), the ED50 in the test with Mus musculus [1] (setting [15]) and with Mus musculus [2] was more than 40 mg/kg in each case.
Take `C=CC[C@]12CCN(CC3CC3)[C@H](Cc3ccc(O)cc31)[C@@]2(C)O.O=C(O)C(O)C(O)C(=O)O` (stereo in doubt; (-)-23a): the ED50 with Mus musculus [1] came to 0.08 mg/kg; in the test with Rattus norvegicus [7], 0.006 mg/kg; in the test with Mus musculus [4] (setting [16]), 44 mg/kg; in the test with Rattus norvegicus [8] it was 8 mg/kg.
For the compound `CCC[C@]12CCN(CC3CCC3)[C@H](Cc3ccc(O)cc31)[C@@]2(C)O.Cl`, the ED50 in the test with Mus musculus [1] (setting [15]) is 1.17 mg/kg; with Rattus norvegicus [7] it was 0.084 mg/kg; in the test on Mus musculus [4] (setting [16]), 0.18 mg/kg.
With `CC1C[C@]23CCN(C4CCC4)[C@H](Cc4ccc(O)cc42)[C@@]3(C)O1` (some centres not stated), the 50% effective dose (ED50) was 3 mg/kg with Mus musculus [1] (setting [15]), 100 mg/kg in the test on Mus musculus [11], 40 mg/kg in the test with Mus musculus [4] (setting [16]) and 33 mg/kg with Mus musculus [12]. Further, the figures for the Activity with Mus musculus [5] and in the test on Mus musculus [6] were 50% and 33%, respectively.
Take `C=CC[C@]12CCN(CC3CC3)[C@H](Cc3ccc(O)cc31)[C@H]2O`: the ED50 in the test with Mus musculus [1] (setting [15]) was 0.5 mg/kg.
In the case of `CC1C[C@]23CCN(C4CC4)[C@H](Cc4ccc(O)cc42)[C@@]3(C)O1` (some centres not stated), the ED50 is 0.63 mg/kg in the test with Mus musculus [1] (setting [15]) and more than 40 mg/kg in the test on Mus musculus [4] (setting [16]).
Turning to `CCC[C@]12CCN(CC)[C@H](Cc3ccc(O)cc31)[C@@]2(C)O`, the ED50 in the test with Mus musculus [1] (setting [15]) was more than 40 mg/kg; in the test with Mus musculus [4] (setting [16]) it was 2.1 mg/kg.
As to `C=CC[C@]12CCN(CC3CC3)[C@H](Cc3ccc(O)cc31)[C@@]2(C)O.O=C(O)C(O)C(O)C(=O)O` (stereo in doubt; (+)-23a), the ED50 in the test on Mus musculus [1] and in the test with Mus musculus [4] was more than 40 mg/kg each time.
As to `Oc1ccc2c(c1)[C@@]13CCCC[C@@]1(O)[C@@H](C2)N(CC1CC1)CC3` [OXILORPHAN], the ED50 was 0.19 mg/kg in the test on Mus musculus [1] (setting [15]); 0.012 mg/kg in the test with Rattus norvegicus [7]; 13 mg/kg in the test with Mus musculus [4] (setting [16]); 8 mg/kg in the test on Rattus norvegicus [8]; 0.03 mg/kg in the test with Rattus norvegicus [9].
On to `C=CC[C@]12CCN(CC)[C@H](Cc3ccc(O)cc31)[C@@]2(C)O.O=C(O)C(=O)O`, for which the ED50 in the test on Mus musculus [1] (setting [15]) was more than 40 mg/kg; in the test with Mus musculus [4] (setting [16]), 2 mg/kg.
Take `CCC[C@]12CCN(CC3CCC3)[C@H](Cc3ccc(O)cc31)[C@H]2O`: the values for the ED50 in the test on Mus musculus [1] (setting [15]) and in the test with Mus musculus [4] (setting [16]) were 2.5 mg/kg and 0.24 mg/kg, respectively.
In the case of `C=CC[C@]12CCN(C)[C@H](Cc3ccc(O)cc31)[C@H]2O`, the ED50 in the test with Mus musculus [1] (setting [15]) was more than 40 mg/kg; in the test on Mus musculus [4] (setting [16]), 1.9 mg/kg. For the same compound, the results for the Activity in the test on Mus musculus [13] and in the test on Mus musculus [14] were 1.25% and 78%, respectively.
As to `C=CC[C@]12CCN(CC3CC3)[C@H](Cc3ccc(O)cc31)[C@@]2(C)O`, the ED50 in the test with Mus musculus [4] (setting [16]) worked out at 45 mg/kg.
With `C=CC[C@]12CCN(Cc3ccco3)[C@H](Cc3ccc(O)cc31)[C@@]2(C)O.O=C(O)C(=O)O`, the ED50 was found to be 1.3 mg/kg with Mus musculus [1] (setting [15]) and 36 mg/kg in the test with Mus musculus [4] (setting [16]). The values for the Activity in the test on Mus musculus [5] and in the test with Mus musculus [6] were 66% and 0%, respectively.
In the case of `Br.CN1CC[C@]23CC(CBr)O[C@]2(C)[C@H]1Cc1ccccc13` (some centres not stated), the ED50 is more than 40 mg/kg with Mus musculus [1] (setting [15]) and 64 mg/kg in the test on Mus musculus [2]. Moreover, the “%max” value in the test with Mus musculus [3] is reported as 32%.
